Laboratory results taken from publication PMC8345109, “Optimization of New Catalytic Topoisomerase II Inhibitors as an Anti-Cancer Therapy” (Cancers, 2021).
≈ marks a conversion by molar mass, not a printed value. Read-outs that look alike come from different tables or passages of the source.

Columns and labels:
[1] = target: full-length TOP2B (Homo sapiens, UniProt Q02880); test: EMSA, full-length TOP2B with 5ZRF DNA oligo; type: binding; design: EMSA was performed by purified full-length TOP2A or TOP2B proteins; conditions: 200 µM compound, 300 nM protein, 100 nM oligo
Sequence of full-length TOP2B (Q02880 whole entry): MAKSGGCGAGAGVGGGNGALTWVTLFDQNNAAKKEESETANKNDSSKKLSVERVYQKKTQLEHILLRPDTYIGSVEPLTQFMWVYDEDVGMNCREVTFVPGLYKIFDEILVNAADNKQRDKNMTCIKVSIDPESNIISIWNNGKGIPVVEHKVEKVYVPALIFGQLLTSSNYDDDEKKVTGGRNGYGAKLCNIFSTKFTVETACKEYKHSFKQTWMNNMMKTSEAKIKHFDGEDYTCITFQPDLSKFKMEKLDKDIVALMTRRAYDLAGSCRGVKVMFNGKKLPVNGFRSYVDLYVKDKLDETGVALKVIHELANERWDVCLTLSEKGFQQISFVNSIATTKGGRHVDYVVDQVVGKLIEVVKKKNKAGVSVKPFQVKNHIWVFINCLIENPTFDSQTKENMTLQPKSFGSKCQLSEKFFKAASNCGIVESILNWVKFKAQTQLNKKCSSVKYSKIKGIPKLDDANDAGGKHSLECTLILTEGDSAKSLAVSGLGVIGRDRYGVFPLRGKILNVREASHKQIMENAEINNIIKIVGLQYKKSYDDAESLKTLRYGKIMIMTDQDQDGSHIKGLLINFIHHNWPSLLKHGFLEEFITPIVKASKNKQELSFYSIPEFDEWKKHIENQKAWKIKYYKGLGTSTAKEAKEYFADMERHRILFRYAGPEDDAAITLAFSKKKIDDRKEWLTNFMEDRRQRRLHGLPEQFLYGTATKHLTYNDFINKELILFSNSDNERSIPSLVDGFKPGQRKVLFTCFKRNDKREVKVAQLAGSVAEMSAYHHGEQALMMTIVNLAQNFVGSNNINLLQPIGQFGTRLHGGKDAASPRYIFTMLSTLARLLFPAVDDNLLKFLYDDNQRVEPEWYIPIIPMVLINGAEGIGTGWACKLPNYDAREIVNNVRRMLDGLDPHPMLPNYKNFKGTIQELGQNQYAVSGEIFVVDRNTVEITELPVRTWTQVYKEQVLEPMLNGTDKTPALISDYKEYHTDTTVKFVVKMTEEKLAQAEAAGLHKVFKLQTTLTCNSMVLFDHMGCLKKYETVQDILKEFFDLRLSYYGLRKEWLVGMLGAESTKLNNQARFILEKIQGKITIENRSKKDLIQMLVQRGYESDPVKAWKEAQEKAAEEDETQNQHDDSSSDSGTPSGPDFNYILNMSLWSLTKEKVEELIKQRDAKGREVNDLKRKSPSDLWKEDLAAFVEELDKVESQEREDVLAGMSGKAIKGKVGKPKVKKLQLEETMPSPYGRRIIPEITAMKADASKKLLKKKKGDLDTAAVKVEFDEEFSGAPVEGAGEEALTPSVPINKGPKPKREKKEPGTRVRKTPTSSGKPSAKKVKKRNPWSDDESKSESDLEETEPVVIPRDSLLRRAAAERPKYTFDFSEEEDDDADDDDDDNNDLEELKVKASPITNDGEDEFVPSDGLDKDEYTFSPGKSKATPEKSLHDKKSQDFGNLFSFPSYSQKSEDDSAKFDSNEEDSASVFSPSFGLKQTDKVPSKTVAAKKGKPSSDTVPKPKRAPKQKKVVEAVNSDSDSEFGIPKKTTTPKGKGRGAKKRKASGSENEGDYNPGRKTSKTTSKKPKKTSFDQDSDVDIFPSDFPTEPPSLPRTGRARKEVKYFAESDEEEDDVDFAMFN
Experimental: (§1) (A) EMSA was performed by purified full-length TOP2A or TOP2B proteins at a contraction of 300 nM with IRDay700 labeled 5ZRF DNA oligo at a concentration of 100 nM in the presence of −/+200 µM of ICRF193, T60, T637, and T638. […] Reactions were subjected to fluorescence […], which were detected by using the Multimode Microplate Reader (Infinite F500). (D) DNA cleavage assays were performed using full-length human TOP2A and TOP2B incubated with the supercoiled pHOT plasmid in the presence of 200 µM of etoposide plus 1, 100, or 200 µM of ICRF193, T60, T637, and T638. Reactions were separated on a DNA gel with ethidium bromide. All experiments were repeated three times, and one representative image was shown. Note: N, nicked DNA; L, linear DNA; and SC, supercoiled DNA.

[2] = Solubility by LC/MS/MS; type: physicochemical; conditions: kinetic from dmso stock
Experimental: Stock solutions of the tested compounds at 50 mM in dimethyl sulfoxide (DMSO) were diluted 50-fold in methanol (MeOH), Roswell Park Memorial Institute-1640 (RPMI1640), plus 5% charcoal-stripped serum (CSS) from Sigma-Aldrich (media) and phosphate-buffered saline (PBS), and vortexed at room temperature for 1 h at 800 rpm. The resulting solutions were centrifuged at 20,000× g for 5 min, and the saturated supernatants were diluted 40-fold in acetonitrile. The resultant solutions were subjected to LC/MS/MS to determine the solubility.

[3] = Crystal formation (precipitation) in cell cultures; type: physicochemical; conditions: up to 100 uM
Experimental: Both T637 and T638 have improved solubility in aqueous solution and culture media compared to T60 (Figure 1). […] When cells are growing in the culture media and treated with T60 at concentrations ≥50 uM for two days, T60 will form crystals, likely due to the altered pH values by the cells that induce T60 precipitation. […] These improvements in solubility allow higher doses of compounds to be used to treat cancer cells to reach maximum tumor suppression.

[4] = target: full-length TOP2A (Homo sapiens, UniProt P11388); test: EMSA, full-length TOP2A with 5ZRF DNA oligo; type: binding; design: EMSA was performed by purified full-length TOP2A or TOP2B proteins; conditions: 200 µM compound, 300 nM protein, 100 nM oligo
Sequence of full-length TOP2A (P11388 whole entry): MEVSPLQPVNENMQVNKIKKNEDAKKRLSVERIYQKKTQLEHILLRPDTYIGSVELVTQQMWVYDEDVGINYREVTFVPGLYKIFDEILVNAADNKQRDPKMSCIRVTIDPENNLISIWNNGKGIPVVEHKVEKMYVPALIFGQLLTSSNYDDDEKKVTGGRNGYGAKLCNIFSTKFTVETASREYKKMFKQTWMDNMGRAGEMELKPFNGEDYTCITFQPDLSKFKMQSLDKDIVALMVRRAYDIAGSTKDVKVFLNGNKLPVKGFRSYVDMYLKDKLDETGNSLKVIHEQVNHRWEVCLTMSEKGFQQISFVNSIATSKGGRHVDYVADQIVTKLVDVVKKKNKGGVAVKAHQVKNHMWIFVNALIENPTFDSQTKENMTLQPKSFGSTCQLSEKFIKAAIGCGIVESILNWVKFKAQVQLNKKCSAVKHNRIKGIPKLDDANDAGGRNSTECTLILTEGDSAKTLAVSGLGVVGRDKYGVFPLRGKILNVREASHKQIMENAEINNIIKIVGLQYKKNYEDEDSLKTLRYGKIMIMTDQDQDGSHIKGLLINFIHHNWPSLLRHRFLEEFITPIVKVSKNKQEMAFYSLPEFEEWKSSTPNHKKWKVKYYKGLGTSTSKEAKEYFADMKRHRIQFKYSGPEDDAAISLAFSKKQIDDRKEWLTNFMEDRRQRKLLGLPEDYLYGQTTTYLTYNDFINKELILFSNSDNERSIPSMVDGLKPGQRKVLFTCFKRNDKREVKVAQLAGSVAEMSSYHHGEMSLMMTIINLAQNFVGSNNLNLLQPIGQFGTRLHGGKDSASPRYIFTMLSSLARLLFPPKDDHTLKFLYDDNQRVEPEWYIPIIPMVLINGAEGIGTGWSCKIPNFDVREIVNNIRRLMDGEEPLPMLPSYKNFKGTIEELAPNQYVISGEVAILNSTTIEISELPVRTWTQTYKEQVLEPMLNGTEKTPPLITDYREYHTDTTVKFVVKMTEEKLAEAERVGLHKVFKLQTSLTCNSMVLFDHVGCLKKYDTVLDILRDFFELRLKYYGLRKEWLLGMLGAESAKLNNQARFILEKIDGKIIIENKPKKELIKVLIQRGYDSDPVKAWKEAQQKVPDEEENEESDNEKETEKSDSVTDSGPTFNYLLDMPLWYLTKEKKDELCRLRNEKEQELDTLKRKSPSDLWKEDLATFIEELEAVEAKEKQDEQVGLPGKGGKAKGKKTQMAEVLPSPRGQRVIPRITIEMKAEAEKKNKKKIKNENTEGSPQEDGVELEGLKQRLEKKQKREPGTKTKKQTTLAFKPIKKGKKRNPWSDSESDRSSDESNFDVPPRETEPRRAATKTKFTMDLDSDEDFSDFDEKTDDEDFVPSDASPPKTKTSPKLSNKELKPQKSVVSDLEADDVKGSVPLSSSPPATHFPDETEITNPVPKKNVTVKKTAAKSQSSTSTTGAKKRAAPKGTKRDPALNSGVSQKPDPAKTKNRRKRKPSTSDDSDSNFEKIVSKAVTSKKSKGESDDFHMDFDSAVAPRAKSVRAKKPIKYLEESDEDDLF
Experimental: as §1

[5] = system: K562 cells; test: Cytotoxicity by LDH release; conditions: K562, 0-20 uM, 48 h
Experimental: (A) K562 cells were treated with 0, 0.5, 1, 5, 10, 15, and 20 uM of T60 or 0, 0.5, 1, 5, 10, 15, 20, 50, and 100 uM of T637 and T638 for 24, 48, or 72 h. […] (B) NCI-H446 small cell lung cancer line and Hela cervical cancer line were treated with 0, 0.5, 1, 5, 10, 15, and 20 uM of T60 or 0, 0.5, 1, 5, 10, 15, 20, 50, and 100 uM of T637 and T638 for five days. Cell growth rates were measured by using Incucyte^TM. (C) K562 cells were treated with 0, 5, 10, 15, and 20 uM of T60, T637, or T638 for 48 h. Cytotoxicity was evaluated by measuring the LDH levels from the culture media. (D) K562 cells were treated with the vehicle or 10–20 µM of etoposide, T60, T637, or T638 for 4 h. Immunoblotting measured p-H2AXγ levels in cells with vinculin as a loading control.

- Block of TOP2B-DNA oligo complex formation (EMSA) [1]: block
- solubility at 1 h ([2]; RPMI1640 plus 5% charcoal-stripped serum, plasma or biological fluid, cell culture media with serum, read-out: Solubility Media/FBS): 485 µM
- solubility at 1 h ([2]; methanol, organic solvent or mixture, methanol, read-out: Solubility Methanol): > 1000 µM
- solubility at 1 h ([2]; phosphate-buffered saline, aqueous buffer, PBS, read-out: Solubility PBS): 142 µM (≈ 47.8 µg/mL)
- Crystal formation in cell cultures, in words [3]: no crystal formation
- Block of TOP2A-DNA oligo complex formation (EMSA) [4]: block
SMILES: Nc1cc(Nc2ccccc2)ccc1NC(=O)c1ccc[nH]c1=S [T638]
- Cytotoxicity (LDH release), in words [5]: not observed
